Reference: US9078902B2, “Triazine derivatives and their therapeutical applications” (NantBioScience, Inc., priority 2010, dated 2015)

Tests used:
Type in all cases: biochemical
[1] = biological target: T1, c-Src kinase (Homo sapiens, UniProt P12931); test: c-Src kinase assay (KinaseProfiler / Kinase Hotspot); conditions: read-out: % Inhibition cSrc
T1 construct: purchased Millipore (KinaseProfiler Service); also Reaction Biology Corp. (Kinase HotSpot)
Protocol: (§1) This example illustrated c-Src kinase, Aurora-A kinase, Flt3 kinase, Ret kinase and TrkA Kinase Assays of selected Compounds from this invention (referred to Daniele Fancelli et al, J. Med. Chem., 2006, 49 (24), pp 7247-7251). The KinaseProfiler™ Service Assay Protocols (Millipore) were used to test the kinase inhibiting activity of novel compounds from this invention. To do this, the buffer composition was as: 20 mM MOPS, 1 mM EDTA, 0.01% Brij-35, 5% Glycerol, 0.1% p-mercaptoethanol, 1 mg/mL BSA. Test compounds were initially dissolved in DMSO at the desired concentration, then serially diluted to the kinase assay buffer. In a final reaction volume of […], Aurora-A(h) (5-10 mU) is incubated with 8 mM MOPS pH 7.0, 0.2 mM EDTA, […] LRRASLG (Kemptide), 10 mM MgAcetate and [y33P-ATP]. The reaction was initiated by the addition of the MgATP mix. After incubation for 40 minute at room temperature, the reaction was stopped by addition of […] of a 3% phosphoric acid solution. […] of the reaction was then spotted onto a P30 filtermat and washed three times for 5 minutes in 50 mM phosphoric acid and once in methanol prior to drying and scintillation counting. Wells containing substrate but no kinase and wells containing a phosphopeptide control were used to set 0% and 100% phosphorylation value, repectively.
(§2) Also Kinase Hotspot SM kinase assay was used to test the compounds for IC50 or % inhibitions (Reaction Biology Corp.). Inhibitor IC50 values were determined by titration of compound at the optimal kinase concentration (Kinase EC50).

[2] = biological target: T2, Aurora-A kinase (Homo sapiens, UniProt O14965); test: Aurora-A kinase assay (KinaseProfiler / Kinase Hotspot); conditions: read-out: % Inhibition Auroro-A
T2 construct: purchased Millipore (KinaseProfiler Service); also Reaction Biology Corp. (Kinase HotSpot)
T2 sequence (O14965 1-403): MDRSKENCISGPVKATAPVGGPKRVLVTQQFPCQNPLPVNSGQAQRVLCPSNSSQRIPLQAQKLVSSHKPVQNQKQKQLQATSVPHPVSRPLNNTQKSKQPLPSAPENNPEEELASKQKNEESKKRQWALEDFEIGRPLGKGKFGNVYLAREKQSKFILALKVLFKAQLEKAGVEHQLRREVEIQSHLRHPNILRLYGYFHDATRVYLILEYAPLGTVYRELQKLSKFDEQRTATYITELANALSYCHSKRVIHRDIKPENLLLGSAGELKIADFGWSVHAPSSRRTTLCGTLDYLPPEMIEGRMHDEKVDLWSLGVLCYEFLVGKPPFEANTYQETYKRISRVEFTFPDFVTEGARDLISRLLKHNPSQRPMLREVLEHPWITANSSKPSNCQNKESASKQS
Protocol: as §1, §2

[3] = biological target: T3, Ret kinase (Homo sapiens, UniProt P07949); test: Ret kinase assay (KinaseProfiler / Kinase Hotspot)
T3 construct: purchased Millipore (KinaseProfiler Service); also Reaction Biology Corp. (Kinase HotSpot)
Protocol: as §1, §2

[4] = biological target: T4, TrkA Kinase (Homo sapiens, UniProt P04629); test: TrkA kinase assay (KinaseProfiler / Kinase Hotspot)
T4 construct: purchased Millipore (KinaseProfiler Service); also Reaction Biology Corp. (Kinase HotSpot)
Protocol: as §1, §2

[5] = biological target: T5, Flt3 kinase (Homo sapiens, UniProt P36888); test: Flt3 kinase assay (KinaseProfiler / Kinase Hotspot)
T5 construct: purchased Millipore (KinaseProfiler Service); also Reaction Biology Corp. (Kinase HotSpot)
T5 sequence (P36888 27-993): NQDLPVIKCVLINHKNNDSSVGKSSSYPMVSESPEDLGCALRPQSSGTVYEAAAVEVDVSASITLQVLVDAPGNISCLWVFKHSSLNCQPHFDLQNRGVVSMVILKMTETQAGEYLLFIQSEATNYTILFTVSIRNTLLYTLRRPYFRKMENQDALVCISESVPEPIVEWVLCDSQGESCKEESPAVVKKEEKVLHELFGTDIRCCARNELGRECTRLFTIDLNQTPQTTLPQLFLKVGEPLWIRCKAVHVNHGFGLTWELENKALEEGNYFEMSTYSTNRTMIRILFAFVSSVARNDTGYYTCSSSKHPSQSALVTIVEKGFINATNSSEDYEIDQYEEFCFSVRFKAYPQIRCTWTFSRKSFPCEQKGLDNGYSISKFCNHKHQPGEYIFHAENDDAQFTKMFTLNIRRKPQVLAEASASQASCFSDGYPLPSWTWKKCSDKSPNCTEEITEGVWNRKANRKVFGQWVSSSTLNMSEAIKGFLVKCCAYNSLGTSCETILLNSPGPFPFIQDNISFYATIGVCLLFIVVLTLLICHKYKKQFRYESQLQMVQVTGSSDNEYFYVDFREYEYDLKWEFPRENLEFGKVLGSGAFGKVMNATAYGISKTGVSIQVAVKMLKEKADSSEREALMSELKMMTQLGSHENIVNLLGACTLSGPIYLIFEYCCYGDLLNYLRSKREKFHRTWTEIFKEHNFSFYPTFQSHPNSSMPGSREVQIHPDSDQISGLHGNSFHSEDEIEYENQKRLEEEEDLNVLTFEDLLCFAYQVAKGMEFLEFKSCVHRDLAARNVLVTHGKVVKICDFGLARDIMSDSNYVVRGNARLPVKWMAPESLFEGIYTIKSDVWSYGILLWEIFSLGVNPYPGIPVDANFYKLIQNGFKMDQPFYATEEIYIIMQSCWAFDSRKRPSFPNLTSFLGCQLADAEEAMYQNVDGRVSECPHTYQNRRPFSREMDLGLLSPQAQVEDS
Protocol: as §1, §2

T3 sequence (P07949 29-1114): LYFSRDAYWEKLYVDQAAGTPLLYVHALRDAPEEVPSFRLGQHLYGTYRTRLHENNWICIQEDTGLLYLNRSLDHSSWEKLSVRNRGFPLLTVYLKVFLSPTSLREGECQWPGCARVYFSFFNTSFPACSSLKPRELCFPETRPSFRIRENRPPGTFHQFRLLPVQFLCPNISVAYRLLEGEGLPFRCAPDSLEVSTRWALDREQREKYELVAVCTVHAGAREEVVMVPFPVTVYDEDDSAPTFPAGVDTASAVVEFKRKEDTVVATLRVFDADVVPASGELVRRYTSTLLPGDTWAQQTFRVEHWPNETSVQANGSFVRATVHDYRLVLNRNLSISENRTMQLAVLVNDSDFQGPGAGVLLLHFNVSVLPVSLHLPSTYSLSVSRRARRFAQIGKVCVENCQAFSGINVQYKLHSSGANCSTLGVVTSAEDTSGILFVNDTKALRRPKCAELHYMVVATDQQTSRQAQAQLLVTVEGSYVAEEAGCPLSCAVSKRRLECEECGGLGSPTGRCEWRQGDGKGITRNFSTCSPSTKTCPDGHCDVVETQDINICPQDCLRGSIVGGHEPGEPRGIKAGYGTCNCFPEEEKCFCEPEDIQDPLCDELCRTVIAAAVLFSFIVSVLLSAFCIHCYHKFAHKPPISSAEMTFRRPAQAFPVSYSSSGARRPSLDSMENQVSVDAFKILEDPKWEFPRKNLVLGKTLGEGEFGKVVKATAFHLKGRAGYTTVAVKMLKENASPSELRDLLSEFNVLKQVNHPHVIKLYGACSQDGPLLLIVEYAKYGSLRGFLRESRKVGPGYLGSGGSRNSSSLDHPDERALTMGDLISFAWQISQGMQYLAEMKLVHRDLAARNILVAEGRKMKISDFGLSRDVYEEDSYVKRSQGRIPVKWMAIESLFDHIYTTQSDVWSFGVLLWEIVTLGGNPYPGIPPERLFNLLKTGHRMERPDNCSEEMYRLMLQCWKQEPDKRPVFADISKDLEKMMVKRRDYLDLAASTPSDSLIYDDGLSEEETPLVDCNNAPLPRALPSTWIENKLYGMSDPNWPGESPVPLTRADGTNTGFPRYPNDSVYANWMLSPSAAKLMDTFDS
T4 sequence (P04629 33-796): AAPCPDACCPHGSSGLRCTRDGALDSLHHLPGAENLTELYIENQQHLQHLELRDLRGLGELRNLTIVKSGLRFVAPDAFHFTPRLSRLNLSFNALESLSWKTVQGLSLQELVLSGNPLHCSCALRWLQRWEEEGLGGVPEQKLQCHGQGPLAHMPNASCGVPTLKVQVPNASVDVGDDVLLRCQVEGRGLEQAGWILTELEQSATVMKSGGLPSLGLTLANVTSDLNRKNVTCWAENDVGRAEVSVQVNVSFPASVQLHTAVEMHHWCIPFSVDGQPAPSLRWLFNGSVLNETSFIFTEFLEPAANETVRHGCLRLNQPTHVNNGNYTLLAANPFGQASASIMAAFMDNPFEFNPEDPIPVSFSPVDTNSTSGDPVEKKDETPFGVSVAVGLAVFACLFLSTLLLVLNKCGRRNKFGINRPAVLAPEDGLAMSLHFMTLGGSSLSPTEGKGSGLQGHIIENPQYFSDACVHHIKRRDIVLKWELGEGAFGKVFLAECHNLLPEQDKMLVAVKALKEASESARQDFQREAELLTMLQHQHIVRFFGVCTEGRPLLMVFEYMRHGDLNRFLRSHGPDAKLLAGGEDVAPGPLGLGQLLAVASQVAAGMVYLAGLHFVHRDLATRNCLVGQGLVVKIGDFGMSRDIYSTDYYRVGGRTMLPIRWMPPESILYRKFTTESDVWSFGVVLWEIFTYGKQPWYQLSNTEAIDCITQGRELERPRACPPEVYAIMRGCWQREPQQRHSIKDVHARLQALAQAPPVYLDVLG
T1 sequence (P12931 whole entry): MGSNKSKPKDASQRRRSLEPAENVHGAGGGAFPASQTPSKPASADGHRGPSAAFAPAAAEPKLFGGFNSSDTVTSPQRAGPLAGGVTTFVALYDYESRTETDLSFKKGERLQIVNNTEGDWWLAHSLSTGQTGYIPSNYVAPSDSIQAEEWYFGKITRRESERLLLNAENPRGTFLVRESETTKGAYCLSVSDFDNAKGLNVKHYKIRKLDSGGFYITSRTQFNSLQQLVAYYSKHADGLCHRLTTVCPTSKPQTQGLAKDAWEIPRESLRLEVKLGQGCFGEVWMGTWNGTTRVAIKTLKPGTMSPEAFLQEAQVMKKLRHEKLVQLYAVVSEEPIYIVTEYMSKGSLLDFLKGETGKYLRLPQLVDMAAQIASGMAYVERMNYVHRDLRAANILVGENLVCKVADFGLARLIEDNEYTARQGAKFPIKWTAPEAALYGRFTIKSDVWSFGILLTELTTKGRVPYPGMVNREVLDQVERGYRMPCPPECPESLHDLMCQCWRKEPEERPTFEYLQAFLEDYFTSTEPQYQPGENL

SMILES | inhibition at 1 µM [1] [%] | inhibition at 1 µM [2] [%] | inhibition at 1 µM [3] [%] | inhibition at 1 µM [4] [%] | inhibition at 1 µM [5] [%]
CCc1nc(Nc2cc(-c3ccco3)[nH]n2)nc(Sc2ccc(NC(=O)C3CC3)cc2)n1 [Example 8] | < 50 | < 50 | 50 to 90 | 50 to 90 | 
CN1CCN(c2nc(Nc3ncc(-c4ccccc4)s3)nc(Sc3ccccc3)n2)CC1 [Example 14] | < 50 | < 50 | < 50 | > 90 | 
CN1CCN(c2nc(Nc3cc(-c4cccs4)[nH]n3)nc(Sc3ccc(NC(=O)C4CC4)cc3)n2)CC1 [Example 6] | < 50 | 50 to 90 | > 90 | > 90 | 
CN1CCN(c2nc(Nc3cc(-c4ccco4)[nH]n3)nc(Sc3ccccc3Cl)n2)CC1 [Example 18] | < 50 | 50 to 90 | 50 to 90 | > 90 | 
CN1CCN(c2nc(Nc3cc(-c4ccco4)[nH]n3)nc(Sc3ccc(O)cc3)n2)CC1 [Example 15] | 50 to 90 | 50 to 90 | > 90 | > 90 | 
CN1CCN(c2nc(Nc3cc(-c4ccco4)[nH]n3)nc(Sc3ccc(Cl)cc3)n2)CC1 [Example 16] | < 50 | 50 to 90 | 50 to 90 | > 90 | > 90
CN1CCN(c2nc(Nc3cc(-c4ccco4)[nH]n3)nc(Sc3ccc(N)cc3)n2)CC1 [Example 10] | < 50 | 50 to 90 | > 90 | > 90 | 
CN1CCN(c2nc(Nc3cc(-c4ccco4)[nH]n3)nc(Sc3ccc(C(F)(F)F)cc3)n2)CC1 [Example 19] | < 50 | 50 to 90 | 50 to 90 | > 90 | 
CN1CCN(c2nc(Nc3cc(-c4ccco4)[nH]n3)nc(Sc3ccc(NC(=O)C4CC4)cc3)n2)CC1 [Example 5] | < 50 | 50 to 90 | 50 to 90 | > 90 | > 90
CN1CCN(c2nc(Nc3ccccc3)nc(Nc3cc(-c4ccco4)[nH]n3)n2)CC1 [Example 20] | 50 to 90 | 50 to 90 | > 90 |  | 
CN1CCN(c2nc(Nc3cc(-c4ccco4)[nH]n3)nc(Sc3ccccc3)n2)CC1 [Example 9] | < 50 | 50 to 90 | > 90 | > 90 | 
CN1CCN(c2nc(Nc3cc(-c4ccco4)[nH]n3)nc(Sc3cccc(Cl)c3)n2)CC1 [Example 17] | < 50 | 50 to 90 | 50 to 90 | > 90 | 

Second part, the compound after the results:

inhibition at 1 µM [1] [%] | inhibition at 1 µM [2] [%] | inhibition at 1 µM [3] [%] | inhibition at 1 µM [4] [%] | inhibition at 1 µM [5] [%] | SMILES
50 to 90 | 50 to 90 | > 90 | > 90 |  | CN1CCN(c2nc(Nc3cc(-c4ccco4)[nH]n3)nc(Oc3ccccc3)n2)CC1 [Example 26]
50 to 90 | 50 to 90 | > 90 | > 90 |  | CN1CCN(c2nc(Nc3cc(-c4ccco4)[nH]n3)nc(N(C)c3ccccc3)n2)CC1 [Example 27]
< 50 | < 50 | < 50 | < 50 |  | CN1CCN(c2nc(Nc3ncc(-c4cccs4)s3)nc(Sc3cccc(NC(=O)C4CC4)c3)n2)CC1 [Example 31]
< 50 | 50 to 90 | 50 to 90 |  |  | CN1CCN(c2nc(Nc3cc(-c4ccco4)[nH]n3)nc(Sc3ccc(Cl)c(Cl)c3)n2)CC1 [Example 23]
< 50 | < 50 | < 50 | < 50 | < 50 | CN1CCN(c2nc(Nc3ncc(-c4cccs4)s3)nc(Sc3ccccc3)n2)CC1 [Example 21]
< 50 | < 50 | < 50 | > 90 |  | CN1CCN(c2nc(Nc3cc(-c4ccco4)[nH]n3)nc(Sc3ccc(OC(F)(F)F)cc3)n2)CC1 [Example 25]
50 to 90 | < 50 | > 90 | > 90 |  | CN1CCN(c2nc(Nc3cc(-c4ccco4)[nH]n3)nc(Sc3cccc(NC(=O)C4CC4)c3)n2)CC1 [Example 30]
50 to 90 | 50 to 90 | > 90 | > 90 |  | COc1ccc(Sc2nc(Nc3cc(-c4ccco4)[nH]n3)nc(N3CCN(C)CC3)n2)cc1 [Example 24]
< 50 | 50 to 90 | 50 to 90 | > 90 |  | CN1CCN(c2nc(Nc3cc(-c4ccco4)[nH]n3)nc(Sc3cc(Cl)cc(Cl)c3)n2)CC1 [Example 22]
< 50 | < 50 | > 90 | > 90 |  | CN1CCN(c2nc(Nc3cc(-c4ccccc4)[nH]n3)nc(Sc3ccc(NC(=O)C4CC4)cc3)n2)CC1 [Example 28]
